How the values were obtained:
[1] = test system: myelin oligodendrocyte glycoprotein (MOG)-induced experimental autoimmune encephalomyelitis (EAE); assay: Variable dose mouse model of MOG-induced experimental autoimmune encephalomyelitis (EAE); assay type: in vivo; conditions: vehicle BID 18 days, Log-rank p=0.039
Experimental: 60 female C57BL/6 mice were housed for an acclimation period of 1 week. 53 mice were enrolled in the study after randomization with a body weight between 18.3-22.3 g with an average body weight of 19.7 g per group on Study day minus 1.
For induction of MOG-EAE, MOG35-55 peptide was administered in phosphate buffered saline (PBS) and complete Freund's adjuvant (CFA). MOG35-55 peptide in PBS was emulsified in a 1:1 (v:v) mixture with CFA via homogenization in an Omni BeadRuptor Elite using 7 mL tubes pre-filled with 2.8 mm ceramic beads. Briefly, MOG35-55 peptide was brought up to 1 mg/mL in cold PBS, and 1.75 mL aliquoted into each homogenization tube. An equal volume (1.75 mL) CFA was then added for a total volume of 3.5 mL, on ice. Two rounds of homogenization were performed using a speed of 3.5 m/s; 3 cycles of 45 seconds with 30 seconds dwell at 4° C., followed by a third round with 2 cycles of 45 seconds and 30 seconds dwell at 4° C. In between each round, samples were placed on ice for ˜15 minutes. Tubes were spun down at 300 g for 1 minute at 4° C. Mice were anesthetized under isoflurane anesthesia. 100 μL (50 μg MOG35-55) was then injected subcutaneously into the flank of each leg (for a total of two injections and 100 μg MOG35-55). On Study Day 0 and Day 2, pertussis toxin was formulated at a concentration of […] in PBS, and 100 μL (200 ng) injected into each animal by intraperitoneal injection.
Treatment was performed BID starting on Day 1 for groups 2, 3, and 4, and once daily (QD) starting on day 1 for group 5. All experimental groups were n=12. The administration interval was 12 hours and the administration volume was 5 mL/kg.
The Body condition score of all animals was monitored on study Days 0, 7, 10 and then every other day. […]
Disease severity was scored on Day 0, 7 and every 2 days beginning on Day 10 onward for all groups. […]
Disease incidence rate was calculated as percentage of total animals per group starting from day 0 until termination on study day 28. […]

[2] = test system: myelin oligodendrocyte glycoprotein (MOG)-induced experimental autoimmune encephalomyelitis (EAE); assay: Mouse model of MOG-induced experimental autoimmune encephalomyelitis (EAE), prophylactic and therapeutic dosing; assay type: in vivo; conditions: 75 mg/kg P.O. BID Days 8-25 (therapeutic)
Experimental: Adult female C57BL/6J mice were randomly allocated to experimental groups and allowed to acclimatize for one week prior to commencing the study. On Day 0 and Day 7, animals were administered an emulsion (200 μL/mouse) of MOG35-55 and complete Freund's adjuvant (CFA). […]. On Day 0 (immediately post-MOG injection) and Day 2, animals were administered with pertussis toxin (PTx, 500 ng/mouse) prepared in phosphate buffered saline (PBS, 100 μL/mouse) by intra-peritoneal injection.
Treatment was performed twice daily (BID) prophylactically starting on Day 1 for groups 1, 2, and 4, and therapeutically starting on day 8 for group 3. All experimental groups were n=12. The administration interval was 12 hours and the administration volume was 5 mL/kg.
Because body weight loss is known to be an important hallmark of EAE occurring in correspondence of the appearance of the first symptoms, animals were weighed daily from the day of immunization (Day 0) until the end of the experiment. The changes in body weight observed over the course of the experiment for the different experimental groups, presented as mean±SEM, are summarized in FIG. 7. […]
From Day 0 until the end of the experiment, animals were scored daily for clinical signs of EAE to include paresis and paralysis affecting the tail and the limbs. […]

[3] = Accelerated stability tests of polymorph Form II (HPLC purity and potency); assay type: physicochemical
Experimental: High-performance liquid chromatography (HPLC) was performed using the following instrument and/or conditions.

Row | Compound | median time to disease ([1]; 25 mg/kg BID PO) [days] | median time to disease ([1]; 75 mg/kg BID PO) [days] | median time to disease ([1]; 100 mg/kg QD PO) [days] | animals showing no symptoms at all (complete remission) ([2]; after Day 20) [%] | disease incidence (highest reached) ([2]; on Day 19, vehicle reached 100% on Day 13) [%] | Potency (%) ([3]; 25° C./60% RH for 1 week) | Purity (area %) ([3]; 25° C./60% RH for 1 week) | Potency (%) ([3]; 40° C./75% RH for 1 week) | Purity (area %) ([3]; 40° C./75% RH for 1 week) | Potency (%) ([3]; 60° C. for 1 week) | Purity (area %) ([3]; 60° C. for 1 week) | Potency (%) ([3]; API standard (no exposure)) | Purity (area %) ([3]; API standard (no exposure))
1 | COc1ccc(-c2nc([C@@H](C)Sc3nc(N)cc(N)n3)c(C)s2)cc1OCCN1CCOCC1 [Compound 1, (R)-2-((1-(2-(4-methoxy-3-(2-morpholinoethoxy)phenyl)-5-methylthiazol-4-yl)ethyl)thio)pyrimidine-4,6-diamine] | 18 | 19 | 20 | ~27 | ~92 | – | – | – | – | – | – | – | –
2 | COc1ccc(-c2nc([C@@H](C)Sc3nc(N)cc(N)n3)c(C)s2)cc1OCCN1CCOCC1 [polymorph Form II, (R)-2-((1-(2-(4-methoxy-3-(2-morpholinoethoxy)phenyl)-5-methylthiazol-4-yl)ethyl)thio)pyrimidine-4,6-diamine] | – | – | – | – | – | 98.7 | 98.75 | 98.6 | 98.66 | 98.6 | 98.75 | 98.6 | 98.22

Reference: patent publication US11446307B2, “Crystalline forms of a deoxycytidine kinase inhibitor and uses thereof” (Trethera Corporation, priority 2020, dated 2022)
